Data reported in US20230279002A1, “Polymorphs of Crystalline Forms of 3,10-dimethoxy-5,8,13,13a-tetrahydro-6H-isoquinolino[3,2-a]isoquinolin-9-yl 3-fluorobenzenesulfonate and Salts Thereof” (CVI Pharmaceuticals Limited, priority 2020, published 2023).
Counter-ions that a name gives are not always drawn. Each block holds one molecule with its values, some of them ahead of it.

Tests used:
[1] = Solid stability at 40° C./0% RH (closed) and 40° C./75% RH (open), HPLC; assay type: physicochemical; conditions: for 0 day % remaining / 5 day % remaining / 10 day % remaining: solid
Experimental: (§1) Solid stability: 5 mg of 2a was weighed into scintillation vials sealed properly and stored at 40° C./0% RH(closed), 40° C./75% RH(open) under dark conditions to avoid the effect of light on stability. Samples were collected at day 0, 5 and 10 and analyzed by HPLC.
Solid stability: 5 mg of compound was weighed into vials sealed properly and stored at 40° C./0% RH (closed), 40° C./75% RH (open) under dark conditions to avoid the effect of light. Samples were analyzed by HPLC at days 0, 7, and 21.
as §1, with “stability of compound 1a:” for “stability:”, “compound were accurately” for “of 2a was”, “condition” for “conditions”, “should be” for “were”, “10 days” for “10”

[2] = Long term stability at 30° C./65% RH; assay type: physicochemical
serum PCSK9 = experiment: Double-blind, randomized phase 1a study in healthy volunteers; assay type: in vivo, human; conditions: 10 days oral 300 mg QD, compared to baseline
Description: (§2) Compound 1a has undergone a double-blind, randomized phase 1a study conducted in healthy volunteers. […] Currently, a phase 2 POC trial is underway in China in patients with hypercholesterolemia.

[3] = system: serum LDL-C, TC, Apo B, and PCSK9; experiment: Proof-of-mechanism phase 1b study in subjects with elevated LDL-C; assay type: in vivo, human; conditions: 28 days, compared with placebo cohort
Description: as §2

[4] = Phase 1 studies, safety and tolerability in healthy volunteers and hyperlipidemic subjects; assay type: in vivo, human
Description: as §2

[5] = TGA (Thermal Gravimetric Analysis) weight loss; assay type: physicochemical
Experimental: TGA (Thermal Gravimetric Analysis): Samples of compounds (4˜6 mg) were weighed into the pan, and heated under nitrogen purge using a ramp rate of 20° C./min over the range of 30° C.˜350° C.

[6] = Solubility of salts in water, SGF and FaSSIF at 25° C. for 24 hours (HPLC)
Experimental: (§3) About 5 mg of seven kinds of salts were weighed into each vial, and 2 mL of medium was added, respectively. The medium included water, SGF and FaSSIF. All samples were stirred at 25° C. for 24 hours.

physchem = conditions: 25 °C, thermodynamic from solid, Solubility (mg/mL)
Experimental: as §3

[7] = Medium: FaSSIF, 25° C., stirred 24 hours, HPLC
[8] = Medium: SGF, 25° C., stirred 24 hours, HPLC
[9] = Medium: Water, 25° C., stirred 24 hours, HPLC

Molecule: COc1ccc2c(c1)CCN1Cc3c(ccc(OC)c3OS(=O)(=O)c3cccc(F)c3)C[C@H]21 [Compound 1a, 3,10-dimethoxy-5,8,13,13a-tetrahydro-6H-isoquinolino[3,2-a]isoquinolin-9-yl 3-fluorobenzenesulfonate]
Solid-state stability (HPLC) ([1]; 40° C./0% RH (closed) and 40° C./75% RH (open), dark, up to 10 days): substantially stable | 0 day % remaining ([1]; 40° C. (0% RH, closed)): 99.65% | 5 day % remaining ([1]; 40° C. (0% RH, closed)): 101.65% | 10 day % remaining ([1]; 40° C. (0% RH, closed)): 100.85% | 0 day % remaining ([1]; 40° C./75% RH (open)): 99.65% | 5 day % remaining ([1]; 40° C./75% RH (open)): 100.66% | 10 day % remaining ([1]; 40° C./75% RH (open)): 101.31% | % Remaining ([2]; 1 month): 100.30% | % Remaining ([2]; 3 month): 100.00% | % Remaining ([2]; 6 month): 99.30% | % Remaining ([2]; 12 month): 99.60% | % Remaining ([2]; 18 month): 99.20% | % Remaining ([2]; 24 month): 99.50% | % Remaining ([2]; 36 month): 100.40% | % Remaining ([2]; time 0): 100.10% | Long term stability ([2]; up to 36 months): stable | serum PCSK9 levels (serum PCSK9): significantly reduced | serum Apo B [3]: significantly reduced | serum LDL-C [3]: significantly reduced | serum PCSK9 levels [3]: significantly reduced | serum TC [3]: significantly reduced | safety profile [4]: favorable safety profile | tolerability [4]: well tolerated

Molecule: COc1ccc2c(c1)CCN1Cc3c(ccc(OC)c3OS(=O)(=O)c3cccc(F)c3)C[C@H]21 [besylate]
TGA weight loss (from RT to 120° C.) [5]: 0.24% | TGA weight loss (in words) ([5]; room temperature to 120° C.): no significant weight loss | solubility [6, 7]: 1 µg/mL | solubility [6, 8]: 214 µg/mL | solubility [6, 9]: 110 µg/mL

Molecule: COc1ccc2c(c1)CCN1Cc3c(ccc(OC)c3OS(=O)(=O)c3cccc(F)c3)C[C@H]21 [hydrobromide salt]
TGA weight loss (from RT to 120° C.) [5]: 1.50% | TGA weight loss ([5]; room temperature to 120° C.): 1.50% | solubility [6, 7]: 2 µg/mL | solubility [6, 8]: 156 µg/mL | solubility [6, 9]: 163 µg/mL

Molecule: hydrochloride
TGA weight loss (from RT to 120° C.) [5]: 0.09%

Second part, led by results:

TGA weight loss (from RT to 120° C.) [5]: 0.44% | TGA weight loss (in words) ([5]; room temperature to 120° C.): almost no obvious weight loss | solubility [6, 7]: 1 µg/mL | solubility [6, 8]: 221 µg/mL | solubility [6, 9]: 86 µg/mL
Molecule: COc1ccc2c(c1)CCN1Cc3c(ccc(OC)c3OS(=O)(=O)c3cccc(F)c3)C[C@H]21 [maleate]

TGA weight loss (from RT to 120° C.) [5]: 0.12% | TGA weight loss (in words) ([5]; room temperature to 120° C.): no weight loss | solubility at 24 h ([6]; FaSSIF, 25 °C, fassif, thermodynamic from solid, Solubility (mg/mL), Medium: FaSSIF, 25° C., stirred 24 hours, HPLC): 2 µg/mL | solubility [6, 8]: 496 µg/mL | solubility [6, 9]: 1370 µg/mL | Solubility compared with other salts ([6]; water and SGF, 25° C., 24 hours): better than that of other salts
Molecule: COc1ccc2c(c1)CCN1Cc3c(ccc(OC)c3OS(=O)(=O)c3cccc(F)c3)C[C@H]21 [sulfate]
Solubility compared with other polymorphs (summary) ([6]; summary of the Examples): generally more soluble than other polymorphs

TGA weight loss (from RT to 120° C.) [5]: 0.60% | TGA weight loss (in words) ([5]; room temperature to 120° C.): almost no significant weight loss | solubility at 24 h (physchem; fassif): < 1 µg/mL | solubility at 24 h (physchem; simulated gastric fluid): 399 µg/mL | solubility at 24 h (physchem; water): 411 µg/mL
Molecule: COc1ccc2c(c1)CCN1Cc3c(ccc(OC)c3OS(=O)(=O)c3cccc(F)c3)C[C@H]21 [tosylate]
